Results on 46 compounds are retold here after patent US20190127359A1, “Compounds & Methods for the Enhanced Degradation of Targeted Proteins & Other Polypeptides by an E3 Ubiquitin Ligase” (YALE UNIVERSITY, priority 2012, published 2019).

This assay concerns the target VHL (Homo sapiens, UniProt P40337). Kind of assay: Fluorescence polarization competition assay (HIF-1α peptide FP displacement).

pIC50: −log10 of the molar value. A value given as a limit tells only on which side of the number the result lay.

In turn, `Cc1cc(CC(=O)N2C[C@H](O)C[C@H]2C(=O)NCc2ccc(Cl)cc2Cl)on1` [VL085] came in with an IC50 (IC50 (μM) 10% DMSO, 10% DMSO) of 27.1 µM.
In the case of `O=C(NCc1ccc(Cl)cc1)[C@@H]1C[C@@H](O)CN1C(=O)c1ccccc1` [VL064], the IC50 (IC50 (μM) 10% DMSO, 10% DMSO) is 110 µM.
Regarding `Cc1cc(CC(=O)N2C[C@H](O)C[C@H]2C(=O)NCc2ccc(C(C)(C)C)cc2)on1` [VL031], the IC50 (IC50 (μM) 10% DMSO, 10% DMSO) came out at 68.5 µM.
For the setting “IC50 (μM) 10% DMSO, 10% DMSO”, `N#Cc1cc(S(=O)(=O)N2C[C@H](O)C[C@H]2C(=O)NCc2ccc(Cl)cc2)ccc1F` [VL063] had an IC50 of more than 1000 µM.
In turn, `Cc1cc(CC(=O)N2C[C@H](O)C[C@H]2C(=O)NCc2ccc(C(F)(F)F)cc2)on1` [VL046] had an IC50 (IC50 (μM) 10% DMSO, 10% DMSO) of 215 µM.
Still for that read-out and setting: under `Cc1cc(CC(=O)N2C[C@H](O)C[C@H]2C(=O)NCc2ccc(F)cc2)on1` [VL020] stands 295 µM.
For `O=C(NCc1ccc(Cl)cc1)[C@@H]1C[C@@H](O)CN1C(=O)Cc1cccc(Br)c1` [VL055], the IC50 (IC50 (μM) 10% DMSO, 10% DMSO) stood at 910 µM. Compared with the last compound, the IC50 is about 3.1-fold higher.
Turning to `Cc1ccc(S(=O)(=O)N2C[C@H](O)C[C@H]2C(=O)Nc2ccc(Br)cc2F)cc1` [VL009], where the note is “10% DMSO”, the “IC50 (μM) 10% DMSO” value is listed as “Inactive”.
Consider `Cc1cc(CC(=O)N2C[C@H](O)C[C@H]2C(=O)NCc2ccc(C(=O)O)cc2)on1` [VL146], for which the IC50 reads like this: (IC50 (μM) 1% DMSO, 1% DMSO) 196 µM; (IC50 (μM) 10% DMSO, 10% DMSO) 129 µM.
`Cc1ccc(S(=O)(=O)N2C[C@H](O)C[C@H]2C(=O)NCCc2ccc(O)cc2)cc1` [VL003]: the IC50 (IC50 (μM) 10% DMSO, 10% DMSO) is more than 1000 µM.
Consider `Cc1cc(CC(=O)N2C[C@H](O)C[C@H]2C(=O)NCc2ccc(-c3ccncc3)cc2)on1` [VL150], for which the IC50 reads like this: (IC50 (μM) 1% DMSO, 1% DMSO) 41 µM; (IC50 (μM) 10% DMSO, 10% DMSO) 16 µM.
For `O=C(NCc1ccc(Cl)cc1)[C@@H]1C[C@@H](O)CN1C(=O)c1ccc2cn[nH]c2c1` [VL127], in that order: 73 µM and 47.7 µM.
The compound `CNC(=O)c1cc(Oc2ccc(NC(=O)[C@@H]3C[C@@H](O)CN3C(=O)Cc3cc(C)no3)cc2)ccn1` [VL027] showed an IC50 (IC50 (μM) 10% DMSO, 10% DMSO) of more than 1000 µM.
In the case of `O=C(NCc1ccc(Cl)cc1)[C@@H]1C[C@@H](O)CN1C(=O)Cc1ccncc1` [VL062], the IC50 (IC50 (μM) 10% DMSO, 10% DMSO) is more than 1000 µM.
With `O=C(NCc1ccc(Cl)cc1)[C@@H]1C[C@@H](O)CN1C(=O)c1ccccc1Cl` [VL073], the IC50 reads like this: (IC50 (μM) 1% DMSO, 1% DMSO) 46 µM; (IC50 (μM) 10% DMSO, 10% DMSO) 39 µM.
Take `Cc1cc(CC(=O)N2C[C@H](O)C[C@H]2C(=O)NCCc2ccc(O)cc2)on1` [Compound 2]: the pIC50 (Table 1A, binding of initial ligands to VHL, average of three independent trials, each in triplicate) was 3.92. Also, under “fluorescence polarization, result in words”, the “displacement of the fluorescent HIF-1α peptide” value is “able to displace the fluorescent peptide albeit at high concentrations”.
For `Cc1cc(CC(=O)N2C[C@H](O)C[C@H]2C(=O)NCc2ccc(-c3cccn3C)cc2)on1` [VL119], the IC50 by setting is: (IC50 (μM) 1% DMSO, 1% DMSO) 33 µM; (IC50 (μM) 10% DMSO, 10% DMSO) 17.8 µM.
In turn, `COc1ccc(C(=O)N2C[C@H](O)C[C@H]2C(=O)NCc2ccc(Cl)cc2)cc1OC` [VL069] yielded an IC50 (IC50 (μM) 10% DMSO, 10% DMSO) of 23.8 µM. This lies in the double-digit micromolar range.
Still for that read-out and setting: under `COc1cccc(CNC(=O)[C@@H]2C[C@@H](O)CN2C(=O)Cc2cc(C)no2)c1` [VL024] stands 511 µM; under `O=C(NCc1ccc(Cl)cc1)[C@@H]1C[C@@H](O)CN1C(=O)c1cccc(O)c1` [VL080], 17 µM.
As for `O=C(NCc1ccc(Cl)cc1)[C@@H]1C[C@@H](O)CN1C(=O)c1cccc(-c2ncc[nH]2)c1` [VL123], the IC50 stood at 404 µM (IC50 (μM) 1% DMSO, 1% DMSO) and 560 µM (IC50 (μM) 10% DMSO, 10% DMSO).
In the case of `Cc1cc(CC(=O)N2C[C@H](O)C[C@H]2C(=O)NCc2ccc(-c3c(C)n[nH]c3C)cc2)on1` [VL152], the 50% inhibitory concentration (IC50) was 32 µM (IC50 (μM) 1% DMSO, 1% DMSO) and 22.8 µM (IC50 (μM) 10% DMSO, 10% DMSO).
In the case of `CCOC(=O)Cn1cc(-c2cccc(C(=O)N3C[C@H](O)C[C@H]3C(=O)NCc3ccc(Cl)cc3)c2)nn1` [VL148], the half-inhibitory concentration (IC50) worked out at 113 µM (IC50 (μM) 1% DMSO, 1% DMSO) and 23.8 µM (IC50 (μM) 10% DMSO, 10% DMSO).
`COc1ccc(Cn2cncc2-c2ccc(CNC(=O)[C@@H]3C[C@@H](O)CN3C(=O)Cc3cc(C)no3)cc2)cc1` [VL132]: the IC50 worked out at 85 µM (IC50 (μM) 1% DMSO, 1% DMSO) and 77.7 µM (IC50 (μM) 10% DMSO, 10% DMSO).
In turn, `Cc1cc(CC(=O)N2C[C@H](O)C[C@H]2C(=O)NCc2cccnc2)on1` [VL036] came in with an IC50 (IC50 (μM) 10% DMSO, 10% DMSO) of 744 µM.
Still for that read-out and setting: under `O=C(NCc1ccc(Cl)cc1)[C@@H]1C[C@@H](O)CN1C(=O)c1ccccc1[N+](=O)[O-]` [VL065] stands 74.2 µM; under `O=C(NCc1ccc(Cl)cc1)[C@@H]1C[C@@H](O)CN1C(=O)CCN1CCCCC1` [VL104], more than 1000 µM.
Turning to `O=C(NCc1ccc(Cl)cc1)[C@@H]1C[C@@H](O)CN1C(=O)Cc1ccco1` [VL052], the IC50 (IC50 (μM) 10% DMSO, 10% DMSO) was more than 1000 µM.
`O=C(NCc1ccc(Cl)cc1)[C@@H]1C[C@@H](O)CN1C(=O)Cc1cccs1` [VL053] yielded an IC50 (IC50 (μM) 10% DMSO, 10% DMSO) of more than 1000 µM.
`Cc1cc(CC(=O)N2C[C@H](O)C[C@H]2C(=O)NCc2ccc(-c3ccn[nH]3)cc2)on1` [VL160]: the half-inhibitory concentration (IC50) reads like this: (IC50 (μM) 1% DMSO, 1% DMSO) 9 µM; (IC50 (μM) 10% DMSO, 10% DMSO) 12.1 µM.
As to `CS(=O)(=O)N1C[C@H](O)C[C@H]1C(=O)Nc1ccc(Br)cc1F` [VL010], the “IC50 (μM) 10% DMSO” value (10% DMSO) is “Inactive”.
In turn, `Cc1cc(CC(=O)N2C[C@H](O)C[C@H]2C(=O)NCc2ccc(-c3cn[nH]c3)cc2)on1` [VL139] came in with an IC50 (IC50 (μM) 1% DMSO, 1% DMSO) of 44 µM and an IC50 (IC50 (μM) 10% DMSO, 10% DMSO) of 24.7 µM.
For `Cc1cc(CC(=O)N2C[C@H](O)C[C@H]2C(=O)NCc2ccc(-c3cc[nH]c3)cc2)on1` [VL133, (2S,4R)—N-(4-(1H-pyrrol-3-yl)benzyl)-4-hydroxy-1-(2-(3-methylisoxazol-5-yl)acetyl)pyrrolidine-2-carboxamide] the same measures were 7.5 µM and 2.2 µM.
`Cc1cc(CC(=O)N2C[C@H](O)C[C@H]2C(=O)NCc2ccc(N(C)C)cc2)on1` [VL018]: the concentration for half-maximal inhibition (IC50) (IC50 (μM) 10% DMSO, 10% DMSO) amounted to 280 µM.
In the case of `Cc1cc(CC(=O)N2C[C@H](O)C[C@H]2C(=O)NCc2ccc(-c3cnc[nH]3)cc2)on1` [VL158], the IC50 by setting is: (IC50 (μM) 1% DMSO, 1% DMSO) 180 µM; (IC50 (μM) 10% DMSO, 10% DMSO) 266 µM.
Consider `Cc1cc(CC(=O)N2C[C@H](O)C[C@H]2C(=O)NCc2ccc(-c3ncon3)cc2)on1` [VL131], for which the IC50 came out at 19 µM (IC50 (μM) 1% DMSO, 1% DMSO) and 8 µM (IC50 (μM) 10% DMSO, 10% DMSO).
Compound `Cc1cc(CC(=O)N2C[C@H](O)C[C@H]2C(=O)NCc2ccc3c(c2)OCO3)on1` [VL017] showed an IC50 (IC50 (μM) 10% DMSO, 10% DMSO) of approximately 510 µM.
With `Cc1cc(CC(=O)N2C[C@H](O)C[C@H]2C(=O)NCc2cccs2)on1` [VL016], where the note is “IC50 (μM) 10% DMSO, 10% DMSO”, the half-inhibitory concentration (IC50) is approximately 730 µM.
Take `COCc1cn(CC(=O)N2C[C@H](O)C[C@H]2C(=O)NCc2ccc(-c3ccccc3)cc2)nn1` [VL137]: the IC50 reads like this: (IC50 (μM) 1% DMSO, 1% DMSO) 128 µM; (IC50 (μM) 10% DMSO, 10% DMSO) 35.6 µM.
Regarding `Cc1cc(CC(=O)N2C[C@H](O)C[C@H]2C(=O)NCc2ccc(OC(F)(F)F)cc2)on1` [VL045], where the note is “IC50 (μM) 10% DMSO, 10% DMSO”, the IC50 turned out to be 146 µM.
With `O=C(NCc1ccc(Cl)cc1)[C@@H]1C[C@@H](O)CN1C(=O)Cc1c[nH]cn1` [VL120], the IC50 is more than 1000 µM (IC50 (μM) 1% DMSO, 1% DMSO) and more than 1000 µM (IC50 (μM) 10% DMSO, 10% DMSO).
As for `Cc1cc(CC(=O)N2C[C@H](F)C[C@H]2C(=O)NCc2ccc(-c3cnco3)cc2)on1` [VL113], the “IC50 (μM) 1% DMSO” value (1% DMSO) is “Inactive”. Further, the “IC50 (μM) 10% DMSO” value (10% DMSO) was “Inactive”.
In turn, `O=C(NCc1ccc(Cl)cc1)[C@@H]1C[C@@H](O)CN1C(=O)c1cccc(Cl)c1` [VL054] registered an IC50 (IC50 (μM) 10% DMSO, 10% DMSO) of 140 µM.
`CC(=O)Nc1ccc(Br)cc1C(=O)N1C[C@H](O)C[C@H]1C(=O)NCc1ccc(Cl)cc1` [VL083] came in with an IC50 (IC50 (μM) 10% DMSO, 10% DMSO) of more than 1000 µM.
Still for that read-out and setting: under `Cc1cc(CC(=O)N2C[C@H](O)C[C@H]2C(=O)NCc2ccc(C(=O)C(C)C)cc2)on1` [VL089] stands 40.8 µM; under `O=C(NCc1ccc(Cl)cc1)[C@@H]1C[C@@H](O)CN1C(=O)c1cccc(F)c1` [VL075], 35.5 µM.

What is called IC50 is the midpoint of a concentration-inhibition curve. A higher IC50 goes with a need for much substance. As a reminder, the pIC50 is the IC50 on a negative log10 scale, so that one unit is a factor of ten. Read a high pIC50 as a low IC50.
